Experimental data published in patent US8674095B2, “Compounds for treating neuropsychiatric conditions” (Afraxis Holdings, Inc., priority 2008, dated 2014).

Tests used:
Type in all cases: biochemical
PAK1, PAK2, PAK3, PAK-4 = experiment: PAK isoform inhibition profile of example compounds; details: classification of example compounds in the description; underlying IC50 data in Table 8
Text: In some embodiments, the PAK inhibitor is a Group I PAK inhibitor that inhibits, for example, one or more Group I PAK polypeptides, for example, PAK1, PAK2, and/or PAK3. […] In some embodiments, the PAK inhibitor is a PAK2 inhibitor. In some embodiments, the PAK inhibitor is a PAK3 inhibitor. In some embodiments, the PAK inhibitor is a mixed PAK1/PAK3 inhibitor. […] In some embodiments, the PAK inhibitor is a Group II PAK inhibitor that inhibits one or more Group II PAK polypeptides, for example PAK-4, PAK5, and/or PAK6. In some embodiments, the PAK inhibitor is a PAK4 inhibitor. In some embodiments, the PAK inhibitor is a PAK5 inhibitor. In some embodiments, the PAK inhibitor is a PAK6 inhibitor.
(§1) A fluorescence-based assay format is used to determine IC50 values of test compounds in vitro. Purified PAK kinase is incubated with ATP, and a test compound at various concentrations and a substrate peptide containing two fluorophores. In a second step, the reaction mix is incubated with a site-specific protease that cleaves non-phosphorylated but not phosphorylated substrate peptide, disrupting the FRET signal generated by the two fluorophores in the cleaved peptide (Z′Lyte™ Kinase assay platform; Life Technologies).
(§2) Reagents: 50 mM HEPES, pH 7.5; 0.01% BRIJ-35; 10 mM MgCl2; 1 mM EGTA, 2 uM substrate peptide Ser/Thr20 (proprietary Life Technologies Sequence), PAK enzyme [2.42-30.8 ng for PAK1, 0.29-6 ng for PAK2, 1.5-20 ng for PAK3 and 0.1-0.86 ng for PAK4; actual enzyme amounts depend on lot activity of the enzyme preparation]
(§3) Test compounds are dissolved in DMSO at various concentrations; the final DMSO concentration in the assay reaction is 1%.
(§4) ATP concentration at Km apparent is used in the assay [50 μM ATP for PAK1 assay, 75 μM ATP for PAK2 assay, 100 μM ATP for PAK3 assay, 5 μM ATP for PAK-4 assay] in a total assay volume of […] Assay reactions are incubated at room temperature for 1 hr. Following the kinase reaction, 5 μl of 1:256 dilution of development solution A (Life Technologies) is added and the reaction mix is incubated for an additional 1 hr at room temperature.
(§5) Plates are analyzed in a standard fluorescence plate reader (Tecan or equivalent) using an excitation wavelength of 400 nm and emission wavelengths of 445 nm and 520 nm. Inhibition of kinase reaction is determined by emission ratio=emission@445 nm/emission@520 nm

PAK2 = PAK2 (Homo sapiens, UniProt Q13177); experiment: Z'Lyte fluorescence-based (FRET) kinase assay, PAK2; details: 75 μM ATP (Km apparent), 1 hr room temperature, 1% DMSO
PAK2, sequence (Q13177 whole entry): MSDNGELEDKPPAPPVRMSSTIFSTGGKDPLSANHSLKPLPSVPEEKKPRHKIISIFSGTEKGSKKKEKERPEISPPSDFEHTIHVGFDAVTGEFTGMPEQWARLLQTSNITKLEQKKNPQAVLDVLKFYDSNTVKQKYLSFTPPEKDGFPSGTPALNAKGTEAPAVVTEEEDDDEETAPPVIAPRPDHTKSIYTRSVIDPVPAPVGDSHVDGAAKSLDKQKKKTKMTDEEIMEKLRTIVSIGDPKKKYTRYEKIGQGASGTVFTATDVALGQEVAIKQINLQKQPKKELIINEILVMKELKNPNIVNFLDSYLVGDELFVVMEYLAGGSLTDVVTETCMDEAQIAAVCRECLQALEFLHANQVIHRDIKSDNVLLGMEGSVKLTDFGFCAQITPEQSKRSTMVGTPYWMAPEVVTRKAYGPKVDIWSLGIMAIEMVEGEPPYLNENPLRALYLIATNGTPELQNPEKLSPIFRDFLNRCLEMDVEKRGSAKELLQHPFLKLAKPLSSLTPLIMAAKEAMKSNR
Procedure: as §1, §2, §3, §4, §5

PAK3 = PAK3 (Homo sapiens, UniProt O75914); experiment: Z'Lyte fluorescence-based (FRET) kinase assay, PAK3; details: 100 μM ATP (Km apparent), 1 hr room temperature, 1% DMSO
PAK3, sequence (O75914 whole entry): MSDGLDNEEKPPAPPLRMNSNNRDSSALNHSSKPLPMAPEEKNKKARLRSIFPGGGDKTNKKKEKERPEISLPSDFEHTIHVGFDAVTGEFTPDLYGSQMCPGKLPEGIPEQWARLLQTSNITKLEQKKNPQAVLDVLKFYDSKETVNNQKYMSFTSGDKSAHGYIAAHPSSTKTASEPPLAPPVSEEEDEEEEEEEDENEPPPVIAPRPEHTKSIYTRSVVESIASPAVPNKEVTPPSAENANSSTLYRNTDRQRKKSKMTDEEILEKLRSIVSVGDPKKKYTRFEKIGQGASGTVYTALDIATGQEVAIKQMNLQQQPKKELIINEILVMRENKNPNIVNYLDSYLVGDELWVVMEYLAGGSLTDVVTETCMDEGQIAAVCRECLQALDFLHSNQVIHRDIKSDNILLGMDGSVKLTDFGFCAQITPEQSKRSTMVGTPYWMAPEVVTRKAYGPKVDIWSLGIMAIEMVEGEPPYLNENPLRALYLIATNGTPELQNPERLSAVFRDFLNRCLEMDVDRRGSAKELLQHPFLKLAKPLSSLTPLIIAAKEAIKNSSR
Procedure: as §1, §2, §3, §4, §5

PAK4 = PAK4 (Homo sapiens, UniProt O96013); experiment: Z'Lyte fluorescence-based (FRET) kinase assay, PAK4; details: 5 μM ATP (Km apparent), 1 hr room temperature, 1% DMSO
PAK4, sequence (O96013 whole entry): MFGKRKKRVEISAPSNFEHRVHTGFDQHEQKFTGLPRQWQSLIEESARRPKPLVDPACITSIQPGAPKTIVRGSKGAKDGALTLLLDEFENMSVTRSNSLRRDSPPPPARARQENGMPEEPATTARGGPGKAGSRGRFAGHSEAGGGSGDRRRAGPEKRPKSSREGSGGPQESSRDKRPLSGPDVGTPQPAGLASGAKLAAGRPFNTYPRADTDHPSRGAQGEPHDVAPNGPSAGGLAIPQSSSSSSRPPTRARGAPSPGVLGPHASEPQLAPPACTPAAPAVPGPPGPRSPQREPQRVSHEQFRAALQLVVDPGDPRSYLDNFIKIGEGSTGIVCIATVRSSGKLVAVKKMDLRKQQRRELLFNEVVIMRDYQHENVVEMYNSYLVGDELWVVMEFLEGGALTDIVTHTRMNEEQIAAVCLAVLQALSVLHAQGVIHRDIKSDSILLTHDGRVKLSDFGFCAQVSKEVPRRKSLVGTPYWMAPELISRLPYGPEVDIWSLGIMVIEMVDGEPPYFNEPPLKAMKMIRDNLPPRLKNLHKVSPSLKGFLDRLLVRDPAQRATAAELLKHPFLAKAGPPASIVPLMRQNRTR
Procedure: as §1, §2, §3, §4, §5

PAK1 = PAK1 (Homo sapiens, UniProt Q13153); experiment: Z'Lyte fluorescence-based (FRET) kinase assay, PAK1; details: 50 μM ATP (Km apparent), 1 hr room temperature, 1% DMSO
PAK1, sequence (Q13153 whole entry): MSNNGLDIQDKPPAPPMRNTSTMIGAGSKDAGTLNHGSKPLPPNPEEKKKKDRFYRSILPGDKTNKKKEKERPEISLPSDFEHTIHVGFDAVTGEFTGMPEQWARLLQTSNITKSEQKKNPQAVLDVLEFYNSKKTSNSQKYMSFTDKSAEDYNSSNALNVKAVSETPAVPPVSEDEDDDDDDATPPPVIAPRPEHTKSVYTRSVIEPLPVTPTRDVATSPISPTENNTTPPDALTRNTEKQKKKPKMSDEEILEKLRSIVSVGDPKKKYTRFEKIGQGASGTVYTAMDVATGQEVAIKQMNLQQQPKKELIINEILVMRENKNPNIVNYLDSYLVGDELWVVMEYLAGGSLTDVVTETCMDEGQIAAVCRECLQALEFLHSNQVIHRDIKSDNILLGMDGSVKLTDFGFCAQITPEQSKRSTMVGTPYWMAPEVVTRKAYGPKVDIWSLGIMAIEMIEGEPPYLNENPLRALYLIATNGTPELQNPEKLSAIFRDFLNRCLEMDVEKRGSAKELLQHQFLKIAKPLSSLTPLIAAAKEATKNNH
Procedure: as §1, §2, §3, §4, §5

| SMILES | PAK inhibitor type (isoform profile) (PAK1, PAK2, PAK3, PAK-4) | IC50 (PAK2) | IC50 (PAK3) | IC50 (PAK4) | IC50 (PAK1) |
| --- | --- | --- | --- | --- | --- |
| O=c1ccc2cnc(Nc3ccc(OC4CCCNC4)cc3)nc2n1Cc1ccccc1C(F)(F)F (stereo not shown) [Compound 15] | mixed PAK1/PAK2/PAK3/PAK-4 inhibitor | – | – | – | – |
| Cc1cc(Nc2nccc(-c3ccc(NCCN4CCCCC4)nc3)n2)ccc1N1CCN(C)CC1 [Compound 107] | – | 1 to 10 µM | > 10 µM | < 1 µM | 1 to 10 µM |
| CCCNc1ccc(-c2ccnc(Nc3ccc(N4CCN(C)CC4)cc3)n2)cn1 [Compound 105] | – | 1 to 10 µM | – | 1 to 10 µM | 1 to 10 µM |
| CN1CCN(c2ccc(Nc3ncc4ccc(=O)n(Cc5ccccc5SC(F)(F)F)c4n3)cc2)CC1 [Compound 45] | mixed PAK1/PAK2/PAK3/PAK-4 inhibitor | – | – | – | – |
| O=c1ccc2cnc(Nc3ccc(N4CCNCC4)c(F)c3)nc2n1C1Cc2ccccc2C1 [Compound 22] | mixed PAK1/PAK2/PAK-4 inhibitor | – | – | – | – |
| CN1CCN(c2ccc(Nc3ncc4ccc(=O)n(C5CCC(C)(C)c6ccccc65)c4n3)cc2)CC1 (stereo not shown) [Compound 21] | mixed PAK1/PAK2 inhibitor | – | – | – | – |
| CN(c1ccc(Nc2ncc3ccc(=O)n(Cc4ccccc4C(F)(F)F)c3n2)cc1)C1CCCNC1 (stereo not shown) [Compound 14] | mixed PAK1/PAK2/PAK3/PAK-4 inhibitor | – | – | – | – |
| O=c1ccc2cnc(Nc3ccc(OC4CCNCC4)cc3)nc2n1Cc1ccccc1C(F)(F)F [Compound 13] | mixed PAK1/PAK2/PAK3/PAK-4 inhibitor | – | – | – | – |
| CN1CCN(c2ccc(Nc3nccc(-c4ccc(NCCN5CCOCC5)nc4)n3)cc2)CC1 [Compound 99] | – | > 10 µM | – | 1 to 10 µM | 1 to 10 µM |
| CN1CCN(CCNc2ccc(-c3ccnc(Nc4ccc(N5CCN(C)CC5)cc4)n3)cn2)CC1 [Compound 103] | – | > 10 µM | – | > 10 µM | 1 to 10 µM |
| CN1CCN(c2ccc(Nc3ncc4ccc(=O)n(Cc5cccc(Cl)c5)c4n3)cc2)CC1 [Compound 34] | – | > 10 µM | – | > 10 µM | 1 to 10 µM |
| CN1CCN(c2ccc(Nc3ncc4ccc(=O)n(Cc5c(F)cccc5C(F)(F)F)c4n3)cc2)CC1 [Compound 60] | mixed PAK1/PAK2/PAK3/PAK-4 inhibitor | < 1 µM | – | – | – |
| CSc1cccc(F)c1Cn1c(=O)ccc2cnc(Nc3ccc(N4CCN(C)CC4)cc3)nc21 [Compound 91, 8-(2-fluoro-6-(methylthio)benzyl)-2-(4-(4-methylpiperazin-1-yl)phenylamino)pyrido[2,3-d]pyrimidin-7(8H)-one] | mixed PAK1/PAK2/PAK3/PAK-4 inhibitor | < 1 µM | – | – | – |
| CN(C)CCNc1ccc(-c2ccnc(Nc3ccc(N4CCN(C)CC4)cc3)n2)cn1 [Compound 101] | – | 1 to 10 µM | – | 1 to 10 µM | 1 to 10 µM |
| CN1CCN(c2ccc(Nc3ncc4ccc(=O)n(Cc5ccccc5C(F)(F)F)c4n3)cc2)CC1 [Compound 44] | mixed PAK1/PAK2/PAK3/PAK-4 inhibitor | – | – | – | – |
| Cc1cc(Nc2nccc(-c3ccc(NCCN)nc3)n2)ccc1N1CCN(C)CC1 [Compound 106] | mixed PAK1/PAK-4 inhibitor | 1 to 10 µM | – | – | – |
| COc1ccc(F)cc1Cn1c(=O)ccc2cnc(Nc3ccc(N4CCN(C)CC4)cc3)nc21 [Compound 56] | PAK1 inhibitor | – | – | – | – |
| CN(C)CCOc1ccc(Nc2nccc(-c3ccc(NCCN)nc3)n2)cc1 [Compound 96] | – | 1 to 10 µM | – | 1 to 10 µM | 1 to 10 µM |
| CN1CCCC(Nc2ccc(Nc3ncc4ccc(=O)n(Cc5ccccc5C(F)(F)F)c4n3)cc2)C1 (stereo not shown) [Compound 63] | mixed PAK1/PAK2/PAK3/PAK-4 inhibitor | – | – | – | – |

| SMILES | PAK inhibitor type (isoform profile) (PAK1, PAK2, PAK3, PAK-4) | IC50 (PAK2) | IC50 (PAK3) | IC50 (PAK4) | IC50 (PAK1) |
| --- | --- | --- | --- | --- | --- |
| CN1CCN(c2ccc(N(C)c3nccc(-c4ccc(NCCN)nc4)n3)cc2)CC1 [Compound 114] | – | > 10 µM | – | > 10 µM | > 10 µM |
| CN1CCN(c2ccc(Nc3nccc(-c4ccc(Cl)nc4)n3)cc2)CC1 [Compound 97] | – | > 10 µM | – | > 10 µM | 1 to 10 µM |
| O=c1c(-c2ccccc2)cc2cnc(Nc3ccc(N4CCNCC4)cc3)nc2n1Cc1ccccc1C(F)(F)F [Compound 120] | inhibits all three Group I PAK isoforms (PAK1, 2 and PAK3) with equal or similar potency | < 1 µM | – | – | – |
| COc1ccccc1Cn1c(=O)ccc2cnc(Nc3ccc(N4CCN(C)CC4)cc3)nc21 [Compound 36] | PAK1 inhibitor | – | – | – | – |
| CN1CCN(c2ccc(Nc3ncc4ccc(=O)n(Cc5ccccc5OC(F)(F)F)c4n3)cc2)CC1 [Compound 43] | mixed PAK1/PAK2 inhibitor | – | – | – | – |
| O=c1c(-c2ccccc2)cc2cnc(Nc3ccc(NC4CCCNC4)cc3)nc2n1Cc1ccccc1C(F)(F)F (stereo not shown) [Compound 121] | inhibits all three Group I PAK isoforms (PAK1, 2 and PAK3) with equal or similar potency | – | – | – | – |
| O=c1ccc2cnc(Nc3ccc(N4CCNCC4)c(F)c3)nc2n1Cc1c(Cl)cccc1C1CC1 [Compound 86] | inhibits all three Group I PAK isoforms (PAK1, 2 and PAK3) with equal or similar potency | < 1 µM | – | – | – |
| CN1CCN(c2ccc(Nc3ncc4ccc(=O)n(C5Cc6ccccc6C5)c4n3)cc2)CC1 [Compound 18] | mixed PAK1/PAK-4 inhibitor | – | – | – | – |
| CN1CCN(c2ccc(Nc3nccc(-c4ccc(NCCCN)nc4)n3)cc2)CC1 [Compound 98] | PAK1 inhibitor | 1 to 10 µM | – | 1 to 10 µM | < 1 µM |
| CN1CCN(c2ccc(Nc3ncc4ccc(=O)n(Cc5ccccc5-n5cccn5)c4n3)cc2)CC1 [Compound 55] | PAK1 inhibitor | – | – | – | – |
| CN1CCN(c2ccc(Nc3ncc4ccc(=O)n(C5CCc6ccccc6C5)c4n3)cc2)CC1 (stereo not shown) [Compound 19] | mixed PAK1/PAK2/PAK3/PAK-4 inhibitor | – | – | – | – |
| CN1CCN(c2ccc(Nc3ncc4ccc(=O)n(Cc5ccccc5Cl)c4n3)cc2)CC1 [Compound 33] | mixed PAK1/PAK2 inhibitor | – | – | – | – |
| CN(C)CCOc1ccc(-c2ccnc(Nc3ccc(N4CCN(C)CC4)cc3)n2)cn1 [Compound 102] | – | > 10 µM | – | > 10 µM | 1 to 10 µM |
| CN1CCN(c2ccc(Nc3ncc4ccc(=O)n(C5CCCC5)c4n3)cc2)CC1 [Compound 2] | PAK1 inhibitor | – | – | – | – |
| CN1CCN(c2ccc(Nc3ncc4ccc(=O)n(CCc5ccccc5)c4n3)cc2)CC1 [Compound 51] | mixed PAK1/PAK2/PAK-4 inhibitor | – | – | – | – |
| O=c1ccc2cnc(Nc3ccc(N4CCNCC4)c(F)c3)nc2n1C1CCc2ccccc2C1 (stereo not shown) [Compound 23] | mixed PAK1/PAK2/PAK3/PAK-4 inhibitor | – | – | – | – |
| CN1CCN(c2ccc(Nc3ncc4ccc(=O)n(C5CCc6ccccc65)c4n3)cc2)CC1 (stereo not shown) [Compound 7] | PAK1 inhibitor | – | – | – | – |
| CCOc1ccccc1Cn1c(=O)ccc2cnc(Nc3ccc(N4CCN(C)CC4)cc3)nc21 [Compound 64] | inhibits all three Group I PAK isoforms (PAK1, 2 and PAK3) with equal or similar potency | – | – | – | – |
| CN1CCN(c2ccc(Nc3ncc4ccc(=O)n(Cc5ccccc5OC(F)F)c4n3)cc2)CC1 [Compound 46] | mixed PAK1/PAK2/PAK3/PAK-4 inhibitor | – | – | – | – |
